Data reported in patent US10647687B2, “Spiropyrazine derivatives as inhibitors of non-apoptotic regulated cell-death” (Helmholtz Zentrum München Deutsches Forschungszentrum für …, priority 2014, dated 2020).
Like-named read-outs stand apart in the source and are kept apart here.

How the values were obtained:
[1] = system: Pfa1 cells; experiment: Inhibition of non-apoptotic cell death after tamoxifen-induced GPx4 knockout (Pfa1/TAM, Example B.4); format: cell-based, mouse
Text: To combat high intracellular ROS levels, mammalian cells have evolved an intricate network of ROS scavenging in cells, in which the thioredoxin and glutathione (GSH) dependent systems prevail. […] Knockout of GPx4 in neurons causes massive neurodegeneration in cortical, cerebellar and hippocampal neurons underscoring the high relevance of ROS-induced cell death signaling in the brain. Briefly, immortalised fibroblasts from these mice were made to contain tamoxifen-inducible CreERT2, which catalyzes the functional ablation of both copies of GPx4 and resulting in a complete knockout of GPx4, a massive ROS burst, and cell death in cell culture. These cells (Pfa1 cells) were used to characterize compounds disclosed herein, whereby tamoxifen (TAM) was given on day 0 along with the compound under test, and 72 hours later cell survival was evaluated using AlamarBlue.

[2] = Cellular toxicity, Pfa1 cells without TAM (Example B.5); format: cell-based; conditions: mouse, read-out: TC50 (the source's name)
Text: An estimate of the toxicity for compounds disclosed herein was obtained by using the same assay as described in Example B.4, but without the addition of TAM. […] Such TC50 values obtained for certain compounds disclosed herein, together with an approximate therapeutic window (estimated by dividing each TC50 by the corresponding IC50 determined from example B.4) are shown in Table 3 and Table 4.

[3] = system: mouse hippocampal cell line (Ht22); experiment: Inhibition of glutamate-induced non-apoptotic cell death (Ht22/GLU, Example B.2); format: cell-based
Text: Glutamate toxicity is conferred on cells from the mouse hippocampal cell line (Ht22) by inhibition of the cysteine/glutamate antiporter, System xc-, leading to impaired cysteine uptake and subsequent GSH depletion. This model is frequently used for mimicking glutathione depletion following oxidative stress in stroke, brain trauma and other neurodegenerative diseases and cellular conditions following ischemia (for example: van Leyen et al, J. Neurochem. 92:824-30 (2005)).
Compounds disclosed herein were evaluated for their ability to promote cell survival upon administration of a lethal dose of glutamate (GLU) to the cell-culture medium.
Briefly, Ht22cells (ATCC or Invitrogen) were propagated DMEM supplemented with 10% FBS/1% Penicillin-Streptomycin, and then seeded onto 96-well plates at a concentration of 2,000 cells/well in 100 μL of MEDIA, simultaneously with glutamate (Sigma Aldrich) to a final concentration of 5 mM, together with increasing concentrations of the compound to be tested (0.5 pM to 100 μM), and the plates incubated at 37° C./5% CO2 for 72 hours. Compound dilutions were prepared from 10 mM stocks dissolved in DMSO and diluted in media. Cells treated with glutamate alone were used as negative control and alpha-tocopherol (Sigma Aldrich) was used as positive control. Compound concentrations were tested in triplicate. After incubation, cell survival was detected and quantified as described in Example B.1.

[4] = system: SH-SY5Y cells; experiment: Specificity: TNF-alpha-induced apoptosis in SH-SY5Y cells (Example B.3); format: cell-based, human; conditions: compound 1 μM, TNF-alpha 10 ng/mL, FIG. 1
Experimental: SH-SY5Y cells were propagated and seeded in 96-well plates, together with compound N-1, N-2, N-10 of Table 1-N (FIG. 1A), compound O/S-6 or O/S-3 of Table 1-O/S (FIG. 1B), or compound C-12, C-91, or C-205 of Table 1-C (FIG. 1C) (each 1 μM) and TNF-alpha was added (final concentration: 10 ng/mL) to induce apoptosis. The apoptosis and pan-caspase inhibitor z-vad (final concentration: 50 μM) and the necroptosis inhibitor Necrostatin-1 (Nec-1; final concentration: 5 μM) were used for comparison. Control wells were established with vehicle only (DMSO), with and without treatment with TNF-alpha to induce apoptosis. Cells were incubated, and cell survival was detected and quantified. Percentage cell survival after TNF-alpha-induced apoptosis is shown (error bars indicate standard deviation (SD)).
Briefly, SH-SY5Y cells were propagated and seeded in 96-well plates, together with the compound to be tested (1 μM), generally as described in Example B.1, except they were seeded at 1,000 cell/well and instead of BSO, TNF-alpha (Invitrogen) was added to a final concentration of 10 ng/mL to induce apoptosis. The apoptosis and pan-caspase inhibitor Z-VAD-fink (Enzo Life Science; final concentration 50 μM) and the necroptosis inhibitor Necrostatin-1 (Nec-1; Enzo Life Science; final concentration 5 μM) were used for comparison. Control wells were established with vehicle only (DMSO), with and without treatment with TNF-alpha to induce apoptosis. Cells were incubated, and cell survival was detected and quantified as described in Example B.1.

[5] = system: human neuroblastoma cell line SH-SY5Y; experiment: Inhibition of BSO-induced non-apoptotic cell death (SH-SY5Y/BSO, Example B.1); format: cell-based; conditions: BSO-induced non-apoptotic cell death, SH-SY5Y cells, 50 μM BSO, 72 hours
Text: L-Buthionine sulfoximine (BSO) is a well-known glutathione (GSH) depletory, which inhibits gamma-glutamyl-cysteine-synthetase, the enzyme catalyzing the rate-limiting step in GSH biosynthesis. The human neuroblastoma cell line SH-SY5Y is sensitive to BSO-induced intracellular glutathione depletion, which causes high levels of reactive oxygen species (ROS) and cellular stress mimicking cellular conditions following ischemia (cf., e.g., Yamada et al., Neurochem. Int. 59:1003-9 (2011)).
Compounds disclosed herein were evaluated for their ability to promote cell survival upon administration of a lethal dose of BSO to cell-culture medium. […] After incubation, cell survival was detected using the live/dead cell assay AquaBluer™ (MultiTarget Pharmaceuticals) and quantified using a fluorescence plate reader (excitation filter: 530-560 nm/emission filter: 590 nm) (SpectraMax M4; Molecular Devices). Fluorescence data so obtained was normalised to the percentage of surviving cells and IC50 values calculated using the GraphPad Prism (GraphPad Software, Inc) software package.

[6] = Mus musculus, tamoxifen on day 0, cell survival after 72 hours
[7] = * not tested at higher concentrations
[8] = HT-22, 5 mM glutamate, 72 hours, cell survival, read-out: Ht22/GLU
[9] = Mus musculus, tamoxifen-induced GPx4 knockout, Pfa1 cells
[10] = HT-22, glutamate-induced non-apoptotic cell death, Ht22 cells, read-out: Ht22/GLU
[11] = Mus musculus, methylated analogues of C-2
[12] = HT-22, 72 h, read-out: Ht22/GLU [μM]

Compound	IC50 [1, 6]	CC50 [2, 7]	IC50 [3, 8]	also measured
CCOC(=O)c1ccc2c(c1)N=C(NC1CCCCC1)C1(CCCCC1)N2 [D-14]	< 1 µM	10 to 50 µM	< 0.5 µM	
CC1CCC2(CC1)Nc1ccccc1N=C2NCc1ccccc1Cl (stereo not drawn) [C-91]				Percentage cell survival after TNF-alpha-induced apoptosis [4]: Non-inhibition of apoptotic cell-death
c1ccc2c(c1)CCCC2NC1=Nc2ccccc2NC12CCNCC2 [D-7]	< 0.1 µM	10 to 20 µM	< 0.2 µM	
c1coc(CNC2=Nc3ccccc3NC23CCCCC3)c1 [D-23]	< 5 µM	> 50 µM	< 5 µM	
CC(C)CCNC1=Nc2ccccc2NC12CCCCCC2 [D-1]	< 2 µM	10 to 50 µM	< 1 µM	
c1ccc2c(c1)N=C(NCc1cncs1)C1(CCCCC1)N2 [D-22]	< 5 µM	> 50 µM	< 5 µM	
Clc1cc2c(cc1Cl)NC1(CCCCC1)C(NCc1cccnc1)=N2 [D-19]	< 0.5 µM	10 to 50 µM	< 0.05 µM	
O=S1(=O)CCC2(CC1)Nc1ccccc1N=C2NCc1cccc(Cl)c1 [O/S-370]				IC50 [1, 9]: < 2 µM; CC50 ([2]; cellular toxicity): 50 to 100 µM; IC50 [3, 10]: < 5 µM; IC50 [5]: < 1 µM
CN1c2ccccc2N=C(NCc2cccc(Cl)c2)C12CCCCC2 [C-2-Me-I]				IC50 ([1]; methylated analogues of C-2): > 10 µM
c1ccc2c(c1)CCC2NC1=Nc2ccccc2NC12CCCCC2 [D-2]	< 2 µM	10 to 50 µM	< 1 µM	
Clc1ccc(CNC2=Nc3ccccc3NC23CCOCC3)cc1 [O/S-3]				Percentage cell survival after TNF-alpha-induced apoptosis [4]: Non-inhibition of apoptotic cell-death
C#CCCCCCCCCC(=O)N1CCC2(CC1)Nc1ccccc1N=C2NCc1cccc(Cl)c1 [F-25]	< 0.2 µM	10 to 20 µM	< 0.2 µM	
c1ccc2c(c1)CCCC2NC1=Nc2ccccc2NC12CCCCC2 [D-4]	< 0.2 µM	20 to 50 µM	< 0.5 µM	
Clc1cccc(CNC2=Nc3cc(Cl)ncc3NC23CCCCC3)c1 [D-11]	< 5 µM	10 to 50 µM	< 5 µM	
Clc1cccc(CNC2=Nc3ncccc3NC23CCCCC3)c1 [D-10]	< 5 µM	1 to 5 µM	< 5 µM	
Clc1cc2c(cc1Cl)NC1(CCCCC1)C(NCc1cccs1)=N2 [D-21]	< 0.5 µM	5 to 10 µM	< 0.2 µM	
CN1CCC2(CC1)Nc1cc(Cl)c(Cl)cc1N=C2NCc1cccc(Cl)c1 [F-24]	< 0.05 µM	0.2 to 0.5 µM	< 0.02 µM	
Clc1cccc(CNC2=Nc3ccccc3NC23CCCCC3)c1 [C-2]				IC50 [1, 11]: < 0.01 µM

Compound	IC50 [1, 6]	CC50 [2, 7]	IC50 [3, 8]	also measured
c1ccc2c(c1)N=C(NCCc1c[nH]c3ccccc13)C1(CCNCC1)N2 [D-6]	< 0.1 µM	5 to 10 µM	< 0.5 µM	
Clc1ccccc1CNC1=Nc2ccccc2NC12CCNCC2 [N-1]				Percentage cell survival after TNF-alpha-induced apoptosis [4]: Non-inhibition of apoptotic cell-death
Clc1cccc(CNC2=Nc3ccccc3NC23CC2CCC(C3)N2)c1 [D-8]	< 0.05 µM	2 to 5 µM		IC50 [3, 12]: < 0.05 µM
C#CCCCCCCCCC(=O)N1CCC2(CC1)Nc1cc(Cl)c(Cl)cc1N=C2NCc1cccc(Cl)c1 [F-26]	< 0.2 µM	10 to 20 µM	< 0.2 µM	
CN1/C(=N/Cc2cccc(Cl)c2)C2(CCCCC2)N(C)c2ccccc21 [C-2-2Me]				IC50 [1, 11]: > 10 µM
Cc1cc(CNC2=Nc3ccccc3NC23CCCCC3)on1 [D-17]	< 5 µM	> 50 µM	< 2 µM	
Clc1cccc(CNC2=Nc3ccccc3NC23CCCNCC3)c1 (stereo not drawn) [N-185]				IC50 [1, 9]: < 0.2 µM; CC50 ([2]; cellular toxicity): 1 to 2 µM; IC50 [3, 10]: < 0.5 µM; IC50 [5]: < 0.05 µM
CC(C)(C)NC1=Nc2ccccc2NC12CCOCC2 [D-15]	< 5 µM	50 to 100 µM	< 5 µM	
c1ccc2c(c1)N=C(NCc1ccncc1)C1(CCCCC1)N2 [D-24]	< 5 µM	> 50 µM	< 5 µM	
c1csc(CNC2=Nc3ccccc3NC23CCNCC3)c1 [D-181]	< 0.5 µM	20 to 50 µM	< 0.1 µM	
c1ccc(CNC2=Nc3ccccc3NC23CC2CCC(C3)N2)cc1 [D-9]	< 0.5 µM	5 to 10 µM		IC50 [3, 12]: < 0.5 µM
CC(C)(C)NC1=Nc2ccccc2NC12CCSCC2 [D-16]	< 1 µM	> 5 µM	< 1 µM	
Clc1ccccc1CNC1=Nc2ccccc2NC12CCCCCC2 [C-205]				Percentage cell survival after TNF-alpha-induced apoptosis [4]: Non-inhibition of apoptotic cell-death
c1ccc2c(c1)N=C(NCc1nccs1)C1(CCCCC1)N2 [D-20]	< 5 µM	> 50 µM	< 2 µM	
c1cncc(CNC2=Nc3ccccc3NC23CCCCC3)c1 [D-13]	< 5 µM	50 to 100 µM	< 5 µM	
c1ccc2c(c1)CCC2NC1=Nc2ccccc2NC12CCOCC2 [D-3]	< 2 µM	50 to 100 µM	< 5 µM	
c1csc(CNC2=Nc3ccccc3NC23CCCCC3)c1 [D-12]	< 5 µM	10 to 50 µM	< 1 µM	
c1ccc2c(c1)CCC2NC1=Nc2ccccc2NC12CCNCC2 [D-5]	< 0.1 µM	5 to 10 µM	< 0.2 µM	
